Here are results for one molecule from paper PMC12225141 (BMC Chemistry, 2025).

Usually IC50 stands for the concentration that inhibits the measured activity by half. Read a low IC50 as inhibition by little substance.

The target in this test is calf intestinal alkaline phosphatase (cIAP) (Bos taurus, UniProt P19111). The experiment in a line: spectrophotometric p-NPP hydrolysis assay at […] nm, commercial cIAP. The test is classed as biochemical.
Sequence of calf intestinal alkaline phosphatase (cIAP) (P19111 20-506): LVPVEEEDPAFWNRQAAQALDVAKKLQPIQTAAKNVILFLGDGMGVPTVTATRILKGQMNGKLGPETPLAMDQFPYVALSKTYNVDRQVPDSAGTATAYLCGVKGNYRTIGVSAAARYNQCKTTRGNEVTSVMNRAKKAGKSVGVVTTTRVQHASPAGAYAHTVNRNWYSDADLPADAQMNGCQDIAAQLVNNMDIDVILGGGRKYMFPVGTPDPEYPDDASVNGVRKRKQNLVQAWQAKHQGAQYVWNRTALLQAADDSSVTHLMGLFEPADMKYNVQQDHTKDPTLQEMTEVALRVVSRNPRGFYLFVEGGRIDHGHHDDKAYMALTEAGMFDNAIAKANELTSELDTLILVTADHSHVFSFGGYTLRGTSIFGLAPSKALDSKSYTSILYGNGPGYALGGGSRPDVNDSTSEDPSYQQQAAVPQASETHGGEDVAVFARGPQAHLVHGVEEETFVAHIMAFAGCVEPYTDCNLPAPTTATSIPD

In turn, `CCNC(=S)NC(=O)c1cccc2ccccc12` [NA-MT, N-(ethylcarbamothioyl)-1-naphthamide] yielded an IC50 of 9.875 ± 0.05 µM.
